From paper PMC3941082 (Journal of electroanalytical chemistry (Lausanne, …, 2014) come the findings set out here.

The target in this assay is Concanavalin A (Con A), as Con A-ALP conjugate (Canavalia ensiformis, UniProt P02866). The assay is described as follows: competitive electrochemical lectin assay. The format is binding.
Sequence of Concanavalin A (Con A), as Con A-ALP conjugate (P02866 164-281 limits assumed): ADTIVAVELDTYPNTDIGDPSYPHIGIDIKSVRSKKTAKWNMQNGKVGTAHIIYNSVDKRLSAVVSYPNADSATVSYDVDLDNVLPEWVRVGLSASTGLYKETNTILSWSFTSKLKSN
Sequence of Concanavalin A (Con A), as Con A-ALP conjugate (P02866 30-148 limits assumed): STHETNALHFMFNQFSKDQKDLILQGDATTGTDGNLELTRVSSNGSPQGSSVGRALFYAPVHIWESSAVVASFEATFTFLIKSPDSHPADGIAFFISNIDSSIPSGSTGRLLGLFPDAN

`CO[C@H]1O[C@H](CO)[C@@H](O)[C@H](O)[C@@H]1O` [methyl α-D-mannopyranoside] registered an IC50 of roughly 90 µM.
